Data as given in US9522198B2, “Methods and compositions related to targeting tumors and wounds” (Sanford-Burnham Medical Research Institute, priority 2006, dated 2016).
Entries after “also recorded” stand apart in the source; their conditions may differ. Ends that are not written are not given here.

Key:
[1] = system: fibronectin; details: reported, Akerman, Pilch et al. 2005; cited from earlier work
[2] = molecular target: T1, fibrinogen (Homo sapiens, UniProt P02671+P02675+P02679); details: reported, Akerman, Pilch et al. 2005; cited from earlier work
T1 sequence (P02671 20-629 limits assumed): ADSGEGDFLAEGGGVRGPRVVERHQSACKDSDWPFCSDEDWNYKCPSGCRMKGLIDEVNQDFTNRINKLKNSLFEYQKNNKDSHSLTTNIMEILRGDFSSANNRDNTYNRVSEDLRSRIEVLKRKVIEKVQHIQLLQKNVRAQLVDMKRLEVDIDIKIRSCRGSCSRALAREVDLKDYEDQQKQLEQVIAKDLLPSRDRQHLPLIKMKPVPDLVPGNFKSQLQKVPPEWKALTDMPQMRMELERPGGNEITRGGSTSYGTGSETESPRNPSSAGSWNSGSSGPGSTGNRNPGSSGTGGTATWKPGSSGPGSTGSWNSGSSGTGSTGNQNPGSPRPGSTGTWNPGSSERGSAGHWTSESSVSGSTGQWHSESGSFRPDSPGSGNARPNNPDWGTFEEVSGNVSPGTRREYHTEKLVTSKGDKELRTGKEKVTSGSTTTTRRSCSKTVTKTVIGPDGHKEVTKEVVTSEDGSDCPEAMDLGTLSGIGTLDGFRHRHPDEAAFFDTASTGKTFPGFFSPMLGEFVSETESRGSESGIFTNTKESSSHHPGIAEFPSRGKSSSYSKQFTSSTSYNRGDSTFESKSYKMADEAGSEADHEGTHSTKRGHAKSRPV
T1 sequence (P02675 31-491): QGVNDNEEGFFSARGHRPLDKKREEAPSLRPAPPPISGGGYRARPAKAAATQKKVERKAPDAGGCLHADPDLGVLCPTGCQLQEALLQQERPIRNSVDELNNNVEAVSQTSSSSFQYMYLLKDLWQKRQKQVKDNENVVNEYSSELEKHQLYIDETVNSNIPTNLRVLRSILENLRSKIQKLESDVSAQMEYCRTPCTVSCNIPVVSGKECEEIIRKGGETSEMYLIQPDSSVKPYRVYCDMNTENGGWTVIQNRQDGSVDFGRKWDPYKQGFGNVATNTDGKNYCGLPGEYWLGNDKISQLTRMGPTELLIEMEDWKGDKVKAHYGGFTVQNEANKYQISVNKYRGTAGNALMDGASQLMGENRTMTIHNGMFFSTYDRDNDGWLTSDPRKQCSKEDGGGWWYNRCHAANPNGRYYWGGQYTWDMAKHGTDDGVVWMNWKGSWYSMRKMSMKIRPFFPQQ
T1 sequence (P02679 27-453): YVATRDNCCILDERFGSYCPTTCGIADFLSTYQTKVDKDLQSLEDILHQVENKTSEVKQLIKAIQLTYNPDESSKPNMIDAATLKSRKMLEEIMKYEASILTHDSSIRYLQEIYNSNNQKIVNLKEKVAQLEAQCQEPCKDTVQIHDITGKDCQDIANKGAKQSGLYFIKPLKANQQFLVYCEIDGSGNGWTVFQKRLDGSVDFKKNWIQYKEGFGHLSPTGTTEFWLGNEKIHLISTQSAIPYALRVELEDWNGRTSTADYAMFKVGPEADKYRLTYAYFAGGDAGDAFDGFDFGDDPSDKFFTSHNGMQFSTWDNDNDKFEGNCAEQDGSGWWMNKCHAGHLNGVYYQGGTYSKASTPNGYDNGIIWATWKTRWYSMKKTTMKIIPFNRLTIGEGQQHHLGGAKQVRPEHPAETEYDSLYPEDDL

[3] = system: orthotopic MDA-MB-435 xenograft tumors; experiment: Tumor homing of i.v. injected fluorescein-conjugated peptides, MDA-MB-435 xenografts; assay type: in vivo, mouse
Description: To determine whether the CLT peptides would recognize clotted plasma proteins in vivo, the peptides were synthesized as fluorescein conjugates and imaged their accumulation in tumors. Mice bearing orthotopic MDA-MB-435 xenograft tumors were intravenously injected with fluorescein-conjugated CLT1 (n=6), CLT2 (n=4), or a control peptide (n=4) with the sequence KAREC (SEQ ID NO: 5).
B16F1 mouse melanoma, Lewis lung carcinoma, C8161 human melanoma, MDA-MB-435 human breast cancer, and PPC-1 human prostate cancer cells (American Type Culture Collection) were maintained in RPMI or DMEM supplemented with 10% FCS. Human tumor cells (1×10^6) were injected into the mammary fat pad or the flank of nude BALB/c nu/nu mice to induce tumors. MMTV PyMT mice were provided by Dr. Robert Oshima (Burnham Institute for Medical Research, La Jolla, Calif.). The MMTV PyMT mice develop breast cancer under the influence of a polyoma middle T antigen driven by the mouse tumor virus promoter (Siegel, P. M., Ryan, E. D., Cardiff, R. D., Muller W. J. (1999) EMBO J., 18, 2149-64). B16F1 tumors induced by injecting 1×10^6 cells subcutaneously were grown in the flank of fibrinogen knock-out mice (Suh, T. T., Holmback, K., Jensen, N. J., Daugherty, C. C., Small, K., Simon, D. I., Potter, S., & Degen, J. L. (1995) Genes Dev. 9, 2020-2033), and of transgenic plasma fibronectin-deficient C57BL/6-Fn(f1/f1) Mx-Cre^+ (Sakai, T., Johnson, K. J., Murozono, M., Sakai, K., Magnuson, M. A., Wieloch, T., Cronberg, T., Isshiki, A., Erickson, H. P., & Fassler R. (2001) Nat. Med. 7, 324-30) and their wild type littermates. Deletion of the fibronectin gene in the liver was induced by poly(I):poly(C) (Yi, M., Sakai, T., Fassler, R., & Ruoslahti, E. (2003) Proc. Natl. Acad. Sci. USA. 100, 11435-11438). Frozen human tissues from clinical breast cancers were provided by the Western Division of the NCI Cooperative Human Tissue Network (Vanderbilt University Medical Center, Nashville, Tenn.).
Peptides were synthesized and conjugated to fluorescein isothiocyanate as described (Laakonen et al. PNAS 2004), and cyclized by exposure to air.
Imaging under a blue light, and examination of the distribution of fluorescein-conjugated peptides after tail vein injection have been described (Hoffman, R. M. (2005) Nature Reviews Cancer 5, 796-806; Laakkonen, P., Akerman, M. E., Biliran, H., Yang, M., Ferrer, F., Karpanen, T., Hoffman, R. M., & Ruoslahti E. (2004) Proc. Natl. Acad. Sci. USA 101, 9381-6).
The imaging methods are briefly described as follows: A Leica fluorescence stereomicroscope, model LZ12, equipped with a 50-W mercury lamp, was used for high-magnification imaging. Selective excitation of GFP was produced through a D425y60 band-pass filter and 470 DCXR dichroic mirror. Emitted fluorescence was collected through a long-pass filter GG475 (Chroma Technology, Brattleboro, Vt.) on a Hamamatsu C5810 3-chip cooled color charge-coupled device camera (Hamamatsu Photonics Systems, Bridgewater, N.J.). Images were processed for contrast and brightness and analyzed with the use of IMAGE PRO PLUS 3.1 software (Media Cybernetics, Silver Springs, Md.). Images of 1,024×724 pixels were captured directly on an IBM PC or continuously through video output on a high-resolution Sony VCR model SLV-R1000 (Sony, Tokyo). Imaging at lower magnification that visualized the entire animal was carried out in a light box illuminated by blue light fiber optics (Lightools Research, Encinitas, Calif.) and imaged by using the thermoelectrically cooled color charge-coupled device camera, as described above (Yang, M., Baranov, E., Jiang, P., Sun, F-X., Li, X-M., Li, L., Hasegawa, S., Bouvet, M., Al-Tuwaijri, M., Chishima, T., et al (2000) Proc. Natl. Acad. Sci. USA 97, 1206-11).
The mice were perfused through the heart 3 hours after the peptide injection and tissues removed for examination. […]

[4] = system: mouse femoral artery; experiment: Homing to wire-injured femoral artery; assay type: in vivo
Experimental: (§1) The wire injury of the mouse femoral artery was induced as previously described (Komatsu, M. & Ruoslahti, E. (2005) Nat Med. (2005) 11:1346-1350). Thirty minutes after the wire injury, 250 μg of fluorescein-conjugated peptides were injected i.v. Muscle injuries were induced in mice by applying a crush injury to the quadriceps muscle, and 500 μg fluorescein-conjugated peptides were injected i.v. 48 hours later. Skin incisions were studied similarly. The mice were perfused through the heart 4 hours after the peptide injection, and tissues were excised, fixed in 4% paraformaldehyde, and embedded in OCT.

[5] = system: quadriceps muscle; experiment: Homing to muscle crush injury; assay type: in vivo, mouse
Experimental: as §1

[6] = system: skin; experiment: Homing to skin incision; assay type: in vivo, mouse
Experimental: as §1

[7] = system: human umbilical venous endothelial cells (HUVECs); assay type: cell-based; details: HUVECs
Description: CLT1 contains a sequence of three consecutive hydrophobic residues, LII (leucine-isoleucine-isoleucine). This motif is very similar to the VII sequence (V, valine) which causes proteins to form large insoluble aggregates (Esteras-Chopo et al. 2005). […] The ability of CLT1 to aggregate proteins correlates with its cytotoxicity for human umbilical venous endothelial cells (HUVECs).

[8] = system: mitochondrial membranes; details: concentration of 10 μM; cited from earlier work
[9] = 500 μg fluorescein-conjugated peptide i.v., 3 h

## Anginex
[1]
  aggregate formation in presence of fibronectin: form aggregates
[2]
  aggregate formation in presence of fibrinogen: form aggregates

## CNAGESSKNC (also: cyclic, ring type not given here, fluorescein conjugate, site not given here) [CLT2, cyclic decapeptide from phage library screened on plasma clots; tested as fluorescein conjugate]
[3]; [9]
  fluorescence in control / healthy organs: not in control organs
  fluorescence in tumors, whole tissues under blue light: intense fluorescence; also recorded: strong fluorescence
[3]; fluorescein-conjugated peptide i.v., 3 h, 400×
  histological distribution of peptide fluorescence within the tumor: distributed in a network pattern
[3]; unlabeled CLT2 in 5 fold excess
  tumor homing / fluorescence on co-injection with unlabeled CLT2: strongly reduced
[4]; uninjured
  homing to normal (intact) femoral artery: not to a normal femoral artery
[4]; wire injury 30 min earlier, 250 μg i.v.
  homing to injured femoral artery: homes
[5]; injury 48 hours earlier, 500 μg i.v.
  homing to muscle crush injury: accumulate
[5]; uninjured
  homing to normal muscle: negative
[6]; incision 48 hours earlier
  homing to skin incision: accumulate
[6]; uninjured
  homing to normal skin: negative
[7]
  cytotoxicity for endothelial cells: nor cytotoxic

## D(KLAKLAK)2 (KLAKLAKKLAKLAK; D-amino acids) [antimicrobial peptide]
[8]
  mitochondrial swelling: marked mitochondrial swelling

## KAREC (also: fluorescein conjugate, site not given here) [reference compound]
[3]; [9]
  fluorescence in tumors, whole tissues under blue light: essentially no fluorescence
